Laboratory results: patent US20230322724A1, “HETEROCYCLIC COMPOUNDS AS CBP/EP300 BROMODOMAIN INHIBITORS” (AURIGENE ONCOLOGY LIMITED, priority 2020, published 2023)

Columns and labels:
[1] = biological target: T1, recombinant P300 bromodomain (Homo sapiens, UniProt Q09472); assay: P300 TR-FRET displacement assay; assay type: binding; conditions: dose-response, read-out: IC50 (group A, B, C)
T1 construct: recombinant P300 bromodomain obtained from BPS Bioscience, USA; purchased BPS Bioscience, USA
T1 sequence (Q09472 1049-1156 limits assumed): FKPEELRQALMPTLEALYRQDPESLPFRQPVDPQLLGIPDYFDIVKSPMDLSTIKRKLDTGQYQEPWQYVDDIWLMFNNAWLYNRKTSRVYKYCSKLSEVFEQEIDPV
Description: The potency of compounds to inhibit P300 enzyme was tested in a TR-FRET displacement assay using recombinant P300 bromodomain obtained from BPS Bioscience, USA. The assay buffer was 50 mM HEPES (pH 7.5), 50 mM NaCl, 0.008% Brij 35, 0.01% BSA, 1 mM TCEP. 50 nM of P300 & 500 nM of Biotinylated ligand was incubated at room temperature for 30 minutes, the reaction was initiated by adding the pre-incubated enzyme ligand mixture to the test compounds. After 60 min incubation, the reaction was stopped by the addition of stop mix containing 1 nM of LANCE Europium-anti-6xHis antibody (Perkin Elmer, USA) and 40 nM of Sure Light Allophycocyanin-Streptavidin (Perkin Elmer, USA). Fluorescence emission of the samples at 665 and 615 nm were measured at an excitation of 340 nm and their ratio was plotted against the compound concentrations to generate dose-response curve.
Selected compounds of the present invention were screened in the above-mentioned assay procedures and IC50 values were determined by fitting the dose-response data to sigmoidal curve fitting equation using Graph pad prism software V7.

[2] = biological target: T2, recombinant CREBBP bromodomain (Homo sapiens, UniProt Q92793); assay: CBP TR-FRET displacement assay; assay type: binding; conditions: for inhibition at 10 µM: compound at 10 μM; for IC50: dose-response, read-out: IC50 (group A, B, C)
T2 construct: recombinant CREBBP bromodomain obtained from BPS Bioscience, USA; purchased BPS Bioscience, USA
Method in brief: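 CREBBP bromodomain (50 nM) preincubated 30 min at room temperature with 500 nM biotinylated ligand in HEPES pH 7.5 buffer with TCEP, then 60 min with compound. Eu-anti-His/APC-streptavidin TR-FRET 665/615 nm ratio read; IC50 from sigmoidal dose-response fit.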

T2 sequence (Q92793 1085-1192 limits assumed): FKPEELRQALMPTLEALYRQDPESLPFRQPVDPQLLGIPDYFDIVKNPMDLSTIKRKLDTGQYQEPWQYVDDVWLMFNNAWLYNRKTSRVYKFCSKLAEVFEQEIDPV

Row | IC50 [1] [nM] | inhibition at 10 µM [2] [%] | IC50 [2] [nM] | SMILES
1 | < 25 | 99 | < 50 | COc1cc(N2CCN(C)c3cc(-c4cnn(C)c4)c(C#N)cc32)c2cc(C)c(=O)n(C)c2c1 [Example 1, 4-(7-Methoxy-1,3-dimethyl-2-oxo-1,2-dihydroquinolin-5-yl)-1-methyl-7-(1-methyl-1H-pyrazol-4-yl)-1,2,3,4-tetrahydroquinoxaline-6-carbonitrile]
2 | < 25 | – | < 50 | CNC(=O)c1ccc(-c2cc3c(cc2C#N)N(c2cc(OC)cc4c2cc(C)c(=O)n4C)CCN3C)cn1 [Example 11]
3 | < 25 | – | < 50 | Cc1cc2c(N3CCCc4cc(-c5cnn(C)c5)c(C(F)F)cc43)nc(N3CCOCC3)cc2n(C)c1=O [Example 234, 5-(7-(Difluoromethyl)-6-(1-methyl-1H-pyrazol-4-yl)-3,4-dihydroquinolin-1(2H)-yl)-1,3-dimethyl-7-morpholino-1,6-naphthyridin-2(1H)-one]
4 | < 25 | – | < 50 | Cc1cc2c(N3CCN(C)c4cc(-c5cnn(C)c5)c(C#N)cc43)cc(OCCO)cc2n(C)c1=O [Example 60, 4-(7-(2-Hydroxyethoxy)-1,3-dimethyl-2-oxo-1,2-dihydroquinolin-5-yl)-1-methyl-7-(1-methyl-1H-pyrazol-4-yl)-1,2,3,4-tetrahydroquinoxaline-6-carbonitrile]
5 | < 25 | – | < 50 | CNC(=O)C1CCN(c2cc3c(cc(C)c(=O)n3C)c(N3CCCc4cc(-c5cnn(C)c5)c(C(F)F)cc43)n2)C1 (stereo not drawn) [Example 201, 1-(5-(7-(Difluoromethyl)-6-(1-methyl-1H-pyrazol-4-yl)-3,4-dihydroquinolin-1(2H)-yl)-1,3-dimethyl-2-oxo-1,2-dihydro-1,6-naphthyridin-7-yl)-N-methylpyrrolidine-3-carboxamide]
6 | 25 to 50 | – | < 50 | COc1cc(N2CCN(C)c3cc(-c4cccnc4)c(C#N)cc32)c2cc(C)c(=O)n(C)c2c1 [Example 15]
7 | < 25 | – | < 50 | CNC(=O)[C@H]1CCN(c2cc3c(cc(C)c(=O)n3C)c(N3CCCc4cc(-c5cnn(C)c5)c(C(F)F)cc43)n2)C1 [Example 212]
8 | > 50000 | – | < 50 | COc1cc(N2CCN(C)c3cc(C4=CCN(C)CC4)c(C#N)cc32)c2cc(C)c(=O)n(C)c2c1 [Example 17]
9 | < 25 | – | < 50 | CNC(=O)[C@@H]1CCN(c2cc3c(cc(C)c(=O)n3C)c(N3CCCc4cc(-c5cnn(C)c5)c(C(F)F)cc43)n2)C1 [Example 211]
10 | < 25 | – | < 50 | Cc1cc2c(N3CCN(C)c4cc(-c5cnn(C)c5)c(F)cc43)cc(N3CCOCC3)cc2n(C)c1=O [Example 48]
11 | 25 to 50 | – | > 10 | COc1cc(N2CCNc3cc(-c4cnn(C)c4)c(C#N)cc32)c2cc(C)c(=O)n(C)c2c1 [Example 62, 4-(7-methoxy-1,3-dimethyl-2-oxo-1,2-dihydroquinolin-5-yl)-7-(1-methyl-1H-pyrazol-4-yl)-1,2,3,4-tetrahydroquinoxaline-6-carbonitrile]
12 | < 25 | 100 | < 50 | Cc1cc2c(N3CCN(C)c4cc(-c5cnn(C)c5)c(C#N)cc43)cc(OCCN3CCOCC3)cc2n(C)c1=O [Example 36]
13 | < 25 | – | < 50 | COc1cc(N2CCN(C)c3cc(-c4ccnn4C)c(C#N)cc32)c2cc(C)c(=O)n(C)c2c1 [Example 9]
14 | > 50000 | – | < 50 | Cc1cc2c(N3CCN(C)c4cc(-c5cnn(C)c5)ncc43)cc(N3C[C@@H]4C[C@H]3CO4)cc2n(C)c1=O [Example 146, 7-((1S,4S)-2-oxa-5-azabicyclo[2.2.1]heptan-5-yl)-1,3-dimethyl-5-(1-methyl-7-(1-methyl-1H-pyrazol-4-yl)-2,3-dihydropyrido[3,4-b]pyrazin-4(1H)-yl)quinolin-2(1H)-one]
15 | < 25 | 100 | < 50 | COCCOc1cc(N2CCN(C)c3cc(-c4cnn(C)c4)c(C#N)cc32)c2cc(C)c(=O)n(C)c2c1 [Example 37]
16 | 25 to 50 | – | < 50 | Cc1cc2c(N3CCN(C)c4cc(-c5cnn(C)c5)c(C#N)cc43)cc(OC3COC3)cc2n(C)c1=O [Example 40]
17 | > 50000 | 91 | > 10 | Cc1cc2c(N3CCN(C)c4cc(-c5cnn(C)c5)c(C#N)cc43)nccc2[nH]c1=O [Example 54]
18 | 25 to 50 | – | < 50 | COc1cc(N2CCN(C)c3cc(N4CCN(C)CC4)c(C#N)cc32)c2cc(C)c(=O)n(C)c2c1 [Example 19]

Row | IC50 [1] [nM] | inhibition at 10 µM [2] [%] | IC50 [2] [nM] | SMILES
19 | 25 to 50 | – | < 50 | COc1cc(N2CCN(C)c3cc(-n4cc(C)cn4)c(C#N)cc32)c2cc(C)c(=O)n(C)c2c1 [Example 10]
20 | 25 to 50 | – | < 50 | COc1cc(N2CCN(C3CC3)c3cc(N4CCN(C)CC4)c(C#N)cc32)c2cc(C)c(=O)n(C)c2c1 [Example 25]
21 | > 50000 | – | > 10 | COc1ccc(CN2CCN(c3cc(OC)cc4c3cc(C)c(=O)n4C)c3cc(C#N)c(-c4cnn(C)c4)cc32)cc1 [Example 8, 4-(7-methoxy-1,3-dimethyl-2-oxo-1,2-dihydroquinolin-5-yl)-1-(4-methoxybenzyl)-7-(1-methyl-1H-pyrazol-4-yl)-1,2,3,4-tetrahydroquinoxaline-6-carbonitrile]
22 | 25 to 50 | – | < 50 | COc1cc(N2CCN(C)c3cc(N4CCOCC4)c(C#N)cc32)c2cc(C)c(=O)n(C)c2c1 [Example 18]
23 | 25 to 50 | – | < 50 | COc1cc(N2CCN(C)c3cc(N4CCC(O)C4)c(C#N)cc32)c2cc(C)c(=O)n(C)c2c1 (stereo not drawn) [Example 20]
24 | < 25 | – | < 50 | Cc1cc2c(N3CCN(C)c4cc(-c5cnn(C)c5)c(C#N)cc43)cc(OCCN(C)C)cc2n(C)c1=O [Example 39]
25 | > 50000 | – | > 10 | Cc1cc2c(N3CCN(C)c4cc(-c5cnn(C)c5)c(C=O)cc43)cccc2[nH]c1=O [Example 57, 1-Methyl-7-(1-methyl-1H-pyrazol-4-yl)-4-(3-methyl-2-oxo-1,2-dihydroquinolin-5-yl)-1,2,3,4-tetrahydroquinoxaline-6-carbaldehyde]
26 | < 25 | – | < 50 | Cc1cc2c(N3CCN(C)c4cc(-c5cnn(C)c5)ccc43)cc(OCC(=O)O)cc2n(C)c1=O [Example 72, 2-((1,3-Dimethyl-5-(4-methyl-6-(1-methyl-1H-pyrazol-4-yl)-3,4-dihydroquinoxalin-1(2H)-yl)-2-oxo-1,2-dihydroquinolin-7-yl)oxy)acetic acid]
27 | 25 to 50 | – | < 50 | Cc1cc2c(N3CCCc4cc(-c5cnn(C)c5)c(C(F)F)cc43)nc(N3CC[C@H](O)C3)cc2n(C)c1=O [Example 210]
28 | < 25 | – | < 50 | Cc1cc2c(N3CCN(C)c4cc(-c5cnn(C)c5)c(C#N)cc43)cc(OCC(=O)O)cc2n(C)c1=O [Example 71, 2-((5-(7-Cyano-4-methyl-6-(1-methyl-1H-pyrazol-4-yl)-3,4-dihydroquinoxalin-1(2H)-yl)-1,3-dimethyl-2-oxo-1,2-dihydroquinolin-7-yl)oxy)acetic acid]
29 | < 25 | 95 | < 50 | Cc1cc2c(N3CCN(C)c4cc(-c5cnn(C)c5)c(C#N)cc43)cc(OCC3CCCN(C)C3)cc2n(C)c1=O (single isomer, unassigned) [Example 247, 4-(1,3-Dimethyl-7-((1-methylpiperidin-3-yl)methoxy)-2-oxo-1,2-dihydroquinolin-5-yl)-1-methyl-7-(1-methyl-1H-pyrazol-4-yl)-1,2,3,4-tetrahydroquinoxaline-6-carbonitrile]
30 | < 25 | – | < 50 | Cc1cc2c(N3CCCc4cc(-c5cnn(C)c5)c(C(F)F)cc43)cc(N3CCOCC3)cc2n(C)c1=O [Example 178]
31 | < 25 | – | < 50 | COc1cc(N2CCN(C)c3cc(-c4cnc(O)nc4)c(C#N)cc32)c2cc(C)c(=O)n(C)c2c1 [Example 16]
32 | < 25 | – | < 50 | Cc1cc2c(N3CCCc4cc(-c5cnn(C)c5)c(C(F)F)cc43)nc(N3CC[C@@H](O)C3)cc2n(C)c1=O [Example 209]
33 | 25 to 50 | – | < 50 | COC(=O)c1cc2c(cc1C#N)N(c1cc(OC)cc3c1cc(C)c(=O)n3C)CCN2C [Example 67, methyl 7-cyano-1-(7-methoxy-1,3-dimethyl-2-oxo-1,2-dihydroquinolin-5-yl)-4-methyl-1,2,3,4-tetrahydroquinoxaline-6-carboxylate]
34 | < 25 | – | < 50 | COc1cc(N2CCN(C)c3cc(-c4c(C)nn(C)c4C)c(C#N)cc32)c2cc(C)c(=O)n(C)c2c1 [Example 12]
35 | < 25 | – | < 50 | Cc1cc2c(N3CCN(C)c4cc(-c5cnn(C)c5)c(C#N)cc43)cccc2[nH]c1=O [Example 2, 1-methyl-7-(1-methyl-1H-pyrazol-4-yl)-4-(3-methyl-2-oxo-1,2-dihydroquinolin-5-yl)-1,2,3,4-tetrahydroquinoxaline-6-carbonitrile]
